Test results published in paper PMC4844587, “PET imaging of cyclooxygenase-2 (COX-2) in a pre-clinical colorectal cancer model” (EJNMMI Research, 2016).

Tests used:
COX-2 = details: read-out: COX-2 inhibition IC50; cited from earlier work
HCA-7 tumors [1] = assay: Dynamic PET imaging of HCA-7 tumor-bearing mice
Description: Female NIH-III nude mice were housed under standard conditions with free access to standard food and tap water. HCA-7 and HCT-116 cells (5 × 10^6 cells in 100 μL of PBS) were injected into the upper left flank of female NIH-III nude mice (20–24 g). After 14 to 21 days post-inoculation, HCA-7 and HCT-116 tumors reached sizes of approximately 0.6–0.9 cm^3 (0.78 ± 0.15 g, as determined during biodistribution experiments) which were suitable for all in vivo experiments.
General anesthesia of HCA-7 tumor-bearing mice was induced with inhalation of isoflurane in 40 % oxygen/60 % nitrogen (gas flow = 1 mL/min), and mice were subsequently fixed in prone position. The body temperature was kept constant at 37 °C for the entire experiment. […] PET data was collected dynamically over 60 min for up to 4 h using an Inveon® PET/CT scanner (Siemens Preclinical Solutions, Knoxville, TN, USA). For the initial 4-h dynamic PET experiments, 3.5 % HSA was added to the final injection solution, while all other experiments were done without addition of carrier protein HSA. Mean standardized uptake values [SUVmean = (activity/mL tissue)/(injected activity/body weight), mL/g] were calculated for each region of interest (ROI) with a threshold defined at 50 % of radioactivity uptake. The time-activity curves (TACs) were generated from dynamic PET scans. All semi-quantified PET data are presented as means ± SEM.
A transmission scan for attenuation correction was not acquired. The radioactivity of the injection solution in a 0.5 mL syringe was determined with a dose calibrator (Atomlab^TM 300, Biodex Medical Systems, New York, U.S.A.). After the PET emission scan was started the radioactivity was injected with a delay of approximately 15 s. Data acquisition continued for 60 min in 3D list mode. The dynamic list mode data were sorted into sinograms with up to 54 time frames (10x2, 8x5, 6x10, 6x20, 8x60, 10x120, 6x300 s). The frames were reconstructed using maximum a posteriori (MAP) reconstruction modes. The pixel size was 0.085x0.085x0.12 cm, and the resolution in the center field of view was 1.8 mm. Correction for partial volume effects was not performed. The image files were further processed using the ROVER v2.0.51 software (ABX GmbH, Radeberg, Germany). Masks defining 3D regions of interest (ROI) were set and the ROIs were defined by thresholding.
ROIs covered all visible tumor mass of the subcutaneous tumors, and the thresholds were defined by 50% of the maximum radioactivity uptake level for HCA-7 tumor in each animal.

HCT-116 tumors = assay: PET imaging of HCT-116 tumor-bearing mice; type: in vivo, NIH-III nude mice; details: 2 h p.i., n = 3
Description: Positron emission tomography (PET) and biodistribution experiments were carried out in HCA-7 and HCT-116 tumor-bearing NIH-III nude mice (Charles River Laboratories, Quebec, Canada). Female NIH-III nude mice were housed under standard conditions with free access to standard food and tap water. HCA-7 and HCT-116 cells (5 × 10^6 cells in 100 μL of PBS) were injected into the upper left flank of female NIH-III nude mice (20–24 g). After 14 to 21 days post-inoculation, HCA-7 and HCT-116 tumors reached sizes of approximately 0.6–0.9 cm^3 (0.78 ± 0.15 g, as determined during biodistribution experiments) which were suitable for all in vivo experiments.
General anesthesia of HCA-7 tumor-bearing mice was induced with inhalation of isoflurane in 40 % oxygen/60 % nitrogen (gas flow = 1 mL/min), and mice were subsequently fixed in prone position. The body temperature was kept constant at 37 °C for the entire experiment. […] PET data was collected dynamically over 60 min for up to 4 h using an Inveon® PET/CT scanner (Siemens Preclinical Solutions, Knoxville, TN, USA). […] Mean standardized uptake values [SUVmean = (activity/mL tissue)/(injected activity/body weight), mL/g] were calculated for each region of interest (ROI) with a threshold defined at 50 % of radioactivity uptake. […] All semi-quantified PET data are presented as means ± SEM.

HCA-7 tumors [2] = assay: Biodistribution in HCA-7 tumor-bearing mice; details: 60 min p.i.; for Biodistribution: Tumor/blood / Biodistribution: Tumor/muscle: ratio, n = 4; for Blocking of [^18F]Pyricoxib tumor uptake (biodistribution studies): celecoxib 100 mg/kg (2 mg per mouse) i.p., HCA-7 tumor
Description: Animals were sacrificed at 60 min p.i. The organs and tissues of interest were rapidly excised, weighed, and the radioactivity was determined using the automatic gamma counter (see above). Radioactivity in the selected tissues and organs was calculated as percent injected dose per gram tissue (%ID/g). Data were analyzed as means ± standard deviation (mean ± SD) for n = 4 animals.

[3] = Radiometabolite analysis and blood compartment distribution; type: in vivo, NIH-III nude mice
Description: Blood samples from the tail vein (20–40 μL) were collected at 5, 30, 60, and 120 min p.i. Plasma was separated by centrifugation (5 min, 13,000×g) followed by plasma protein precipitation using ice-cold methanol (two parts per one part plasma) and centrifugation (5 min, 13,000×g). Supernatants were analyzed by radio thin-layer chromatography (radio-TLC). TLCs were developed in 1 % MeOH/CH2Cl2 and analyzed using a BAS-5000 reader.

Lipophilicity = type: physicochemical
[4] = tested on: carbonic anhydrase (CA) enzyme family; details: cited from earlier work
[5] = + 2 mg celecoxib i.p. 60 min prior

Description for HCA-7 cells: Blocking experiments were performed at 60 min. Radiotracer uptake was stopped by the addition of 1 mL of ice-cold PBS. Then, cells were washed two times with PBS and lysed in 0.4 mL of radioimmunoprecipitation assay buffer (RIPA buffer). Radioactivity of cell lysates was determined with a WIZARD2 Automatic gamma counter (Perkin Elmer; Waltham, MA, USA). Total protein concentration in the samples was determined by the bicinchoninic acid method (BCA; Pierce, Thermo Scientific 23227) using bovine serum albumin (800, 600, 400, 300, 200, 100, 50 μg/mL, blank) as protein standard. Cell uptake data are expressed as percent of measured radioactivity per 1 mg protein (%radioactivity/mg protein).

CS(=O)(=O)c1ccc(C2=C(c3ccccc3)C(=O)OC2)cc1 [rofecoxib, 4-(4′-methylsulfonylphenyl)-3-phenyl-2-(5H)-furanone]
IC50 (COX-2): 18 to 26 nM | Blocking of [^18F]Pyricoxib uptake (HCA-7 cells): blocked uptake of [^18F]Pyricoxib in HCA-7 cells in a concentration-dependent manner

CS(=O)(=O)c1ccc(-c2cc(C(F)(F)F)nc(NCc3ccc([18F])cc3)n2)cc1 [[^18F]Pyricoxib, N-(4-[^18F]fluorobenzyl)-4-[4-(methylsulfonyl)phenyl]-6-(trifluoro-methyl)pyrimidin-2-amine]
Mean SUV HCA-7 tumor (HCA-7 tumors [1]; 60 min p.i., control animals, no HSA, n = 6): 0.75 ± 0.12 | SUV HCA-7 tumor (HCA-7 tumors [1]; 60 min p.i., pre-treated with celecoxib 2 mg i.p. 60 min prior, n = 6): 0.57 ± 0.20 | SUV2h tumor (HCA-7 tumors [1]; HCA-7 tumor, 2 h p.i., n = 3): 1.09 ± 0.13 | SUV4h tumor (HCA-7 tumors [1]; HCA-7 tumor, 4 h p.i., […] HSA added, n = 7): 1.19 ± 0.13 | SUV muscle (HCA-7 tumors [1]; muscle as reference tissue, 60 min p.i., no HSA, n = 6): 0.50 ± 0.11 | SUV60min muscle (HCA-7 tumors [1]; muscle, 60 min p.i., […] HSA added): 0.61 ± 0.14 | SUV4h muscle (HCA-7 tumors [1]; muscle, 4 h p.i., […] HSA added, n = 7): 0.53 ± 0.11 | SUV2h tumor (HCT-116 tumors): 0.93 ± 0.06 | Biodistribution: Blood (HCA-7 tumors [2]; control, n = 4, mean ± SD): 0.65 ± 0.12 %ID/g | Biodistribution: Bone (HCA-7 tumors [2]; control, n = 4, mean ± SD): 0.67 ± 0.19 %ID/g | Biodistribution: Brain (HCA-7 tumors [2]; control, n = 4, mean ± SD): 1.74 ± 0.51 %ID/g | Biodistribution: Duodenum (HCA-7 tumors [2]; control, n = 4, mean ± SD): 4.59 ± 0.73 %ID/g | Biodistribution: Fat (HCA-7 tumors [2]; control, n = 4, mean ± SD): 12.67 ± 5.45 %ID/g | Biodistribution: HCA-7 tumor (HCA-7 tumors [2]; control, n = 4, mean ± SD): 2.12 ± 0.53 %ID/g | Biodistribution: Heart (HCA-7 tumors [2]; control, n = 4, mean ± SD): 2.52 ± 0.54 %ID/g | Biodistribution: Intestine (large) (HCA-7 tumors [2]; control, n = 4, mean ± SD): 4.21 ± 1.74 %ID/g | Biodistribution: Intestine (small) (HCA-7 tumors [2]; control, n = 4, mean ± SD): 8.08 ± 2.33 %ID/g | Biodistribution: Kidneys (HCA-7 tumors [2]; control, n = 4, mean ± SD): 4.38 ± 1.01 %ID/g | Biodistribution: Liver (HCA-7 tumors [2]; control, n = 4, mean ± SD): 17.13 ± 1.22 %ID/g | Biodistribution: Lung (HCA-7 tumors [2]; control, n = 4, mean ± SD): 3.75 ± 0.66 %ID/g | Biodistribution: Muscle (HCA-7 tumors [2]; control, n = 4, mean ± SD): 1.42 ± 0.54 %ID/g | Biodistribution: Ovaries (HCA-7 tumors [2]; control, n = 4, mean ± SD): 8.22 ± 1.27 %ID/g | Biodistribution: Pancreas (HCA-7 tumors [2]; control, n = 4, mean ± SD): 3.92 ± 1.39 %ID/g | Biodistribution: Spleen (HCA-7 tumors [2]; control, n = 4, mean ± SD): 1.24 ± 0.33 %ID/g | Biodistribution: Stomach (HCA-7 tumors [2]; control, n = 4, mean ± SD): 1.08 ± 0.29 %ID/g | Biodistribution: Tumor/blood (HCA-7 tumors [2]; [5]): 1.09 ± 0.41 | Biodistribution: Tumor/muscle (HCA-7 tumors [2]; [5]): 0.70 ± 0.19 | Biodistribution: Tumor/blood (HCA-7 tumors [2]; control): 3.39 ± 0.55 | Biodistribution: Tumor/muscle (HCA-7 tumors [2]; control): 1.81 ± 1.04 | Blood compartment distribution: blood cells ([3]; 5 min): 68% | Blood compartment distribution: plasma proteins ([3]; 5 min): 2% | Blood compartment distribution: plasma supernatant ([3]; 5 min): 30% | Detectable radioactivity in plasma fraction ([3]; 5 min p.i.): 30% | Blood compartment distribution: blood cells ([3]; 30 min): 54% | Blood compartment distribution: plasma proteins ([3]; 30 min): 4% | Blood compartment distribution: plasma supernatant ([3]; 30 min): 42% | Blood compartment distribution: blood cells ([3]; 60 min): 43% | Blood compartment distribution: plasma proteins ([3]; 60 min): 7% | Blood compartment distribution: plasma supernatant ([3]; 60 min): 50% | Detectable radioactivity in plasma fraction ([3]; 2 h p.i.): 50% | Percentage of intact [^18F]Pyricoxib ([3]; blood, 5 min p.i., mice): 98% | logP (Lipophilicity): 3.37

Cc1ccc(-c2cc(C(F)(F)F)nn2-c2ccc(S(N)(=O)=O)cc2)cc1 [celecoxib, reference compound]
Affinity for carbonic anhydrase [4]: low nanomolar affinity | Blocking of [^18F]Pyricoxib tumor uptake (biodistribution studies) (HCA-7 tumors [2]): 50% | Blocking of [^18F]Pyricoxib tumor uptake (biodistribution studies) (HCA-7 tumors [2]; listed as Celecoxib): 51%
